{
  "source": "paper PMC6015718",
  "about": "“Effect of Polyvalence on the Antibacterial Activity of a Synthetic Peptide Derived from Bovine Lactoferricin against Healthcare-Associated Infectious Pathogens” (BioMed Research International, 2018)",
  "type_in_all_cases": "cell-based",
  "key": {"[1]": {"test_system": "Klebsiella pneumoniae ATCC 13883 (sensitive)", "description": "(§1) All microorganisms were purchased from the American Type Culture Collection (ATCC). To determine the antibacterial activity of synthetic peptides against HCAI bacteria, the Staphylococcus aureus strains ATCC 25923 and ATCC 33591 were employed as sensitive and resistant strains, respectively, of a Gram-positive microorganisms species, and Klebsiella pneumoniae ATCC 13883 and ATCC 700603 as sensitive and resistant strains of a Gram-negative species.\n(§2) The antibacterial activity assay for peptides and controls was performed according to the National Committee for Clinical Laboratory Standards method M7-A7 [11]. MIC and MBC values were determined using a broth microdilution and growth inhibition method with some modification. Briefly, MIC assays were performed by liquid inhibition growth assay in an untreated sterile 96-well flat-bottom tissue culture plate. Bacteria were cultured overnight on Mueller-Hinton agar (MHA). Three colonies were transferred to 8 mL of Mueller-Hinton broth (MHB) and incubated at 37°C until the mid-exponential phase of growth. The turbidity of the cultures was measured and adjusted spectrophotometrically to McFarland standard 0.5, then diluted to a final concentration of […]. Synthetic antibacterial peptide candidate stock solutions were diluted to final concentrations per well of 200, 100, 50, 25, 12.5, and 6.25 μM. […]\n(§3) Wells containing MHB with bacterial inoculum only served as bacterial growth controls. Additional controls included MHB alone and MHB with ciprofloxacin (CIP) (2 μg/mL) and bacteria as a positive control. The microplate was incubated for 24 h at 37°C, and growth inhibition was examined by monitoring the optical density at 620 nm (OD620). MIC was defined as the lowest peptide concentration that inhibited bacteria growth >90%."}, "[2]": {"test_system": "Klebsiella pneumoniae ATCC 700603 (resistant)", "description": "as §1, §2, §3"}, "[3]": {"test_system": "Staphylococcus aureus ATCC 25923 (sensitive)", "description": "as §1, §2, §3"}, "[4]": {"test_system": "Staphylococcus aureus ATCC 33591 (resistant)", "description": "as §1, §2, §3"}, "[5]": {"test_system": "Klebsiella pneumoniae ATCC 13883 (sensitive)", "description": "as §1\n(§4) To determine the MBC, an aliquot from each well of the MIC assay was spread onto MHA. After 18 h at 37°C, the concentration that inhibited bacterial growth was determined. Each of these tests was performed four times. MBC was defined as the lowest concentration of peptide that reduced the number of bacteria by 99.9% in vitro [12].", "remark": "listed apart in the source"}, "[6]": {"test_system": "Klebsiella pneumoniae ATCC 700603 (resistant)", "description": "as §1, §4", "remark": "listed apart in the source"}, "[7]": {"test_system": "Staphylococcus aureus ATCC 25923 (sensitive)", "description": "as §1, §4", "remark": "listed apart in the source"}, "[8]": {"test_system": "Staphylococcus aureus ATCC 33591 (resistant)", "description": "as §1, §4", "remark": "listed apart in the source"}, "human erythrocytes": {"test_system": "human erythrocytes", "assay": "Haemolytic activity", "details": "6.25-100 μM peptide; human erythrocytes 2% haematocrit in PBS, 2 h 37°C, OD492; n = 2", "method": "Human erythrocytes collected from the blood samples of healthy humans were harvested by centrifugation for 7 min at 162 ×g and washed three times in phosphate-buffered saline (PBS). The erythrocytes (2% haematocrit in PBS) were incubated with peptide molecules at several concentrations (6.25, 12.5, 25, 50, and 100 μM), for 2 h at 37°C. PBS was used as a negative control, and sterile distilled water was used as a positive control for haemolysis (100% of haemolysis). The plate was subsequently centrifuged at 1459 ×g for 10 min at 4°C. Aliquots of the supernatants of each well (75 μL) were carefully transferred to a new sterile 96-well plate, and haemolytic activity was evaluated by measuring the OD492 using an Asys Expert Plus Microplate reader. The experiments were performed in duplicate, and peptide haemolysis activity was calculated.\nLastly, to evaluate the effects of the peptides on normal human erythrocytes, their haemolysis activity was investigated (Figure 6). The percentage of haemolytic activity on human red blood cells after 2 hours was determined via the standard microtitre dilution method. The peptide concentration is reported as μM."}},
  "note": "“And” between values parts separate entries of the source, which are not always exact repeats. Equal entries are not always repeated. Where two headings read alike, the source gives them in different places. Positions of bridges follow the written chain, without caps; N, C: chain ends. Non-standard residues stand in square brackets, D forms with d. Residues, ends and D or L forms follow the SMILES beside them. Chains are numbered I, II in the order given. Ahx = NCCCCCC(=O)O",
  "data": [
    {"compound": "N=C(N)NCCC[C@H](NC(=O)[C@H](Cc1c[nH]c2ccccc12)NC(=O)[C@H](CCC(N)=O)NC(=O)[C@H](Cc1c[nH]c2ccccc12)NC(=O)[C@H](CCCNC(=N)N)NC(=O)[C@@H](N)CCCNC(=N)N)C(=O)NCCCC[C@H](NC(=O)[C@H](CCCNC(=N)N)NC(=O)[C@H](Cc1c[nH]c2ccccc12)NC(=O)[C@H](CCC(N)=O)NC(=O)[C@H](Cc1c[nH]c2ccccc12)NC(=O)[C@H](CCCNC(=N)N)NC(=O)[C@@H](N)CCCNC(=N)N)C(=O)NCCCCCC(N)=O", "note": "[Dimeric] (I: H-RRWQWRK[Ahx]-NH2 / II: H-RRWQWR; amide I:7-II:C; N-terminus assumed)", "values": [
      {"measurement": "MIC", "setting": "[1]; ATCC 13883, 24 h", "value": 12.5, "unit": "µM"},
      {"measurement": "MIC", "setting": "[1]; K. pneumoniae ATCC 13883 sensitive, MHB, 24 h 37°C, OD620, >90% inhibition, average of four independent experiments in duplicate", "value": 27, "unit": "µg/mL"},
      {"measurement": "MIC", "setting": "[1]; K. pneumoniae ATCC 13883 sensitive, MHB, 24 h 37°C, OD620, >90% inhibition, average of four independent experiments in duplicate, listed as dimeric", "value": "≥ 27", "unit": "µg/mL"},
      {"measurement": "MIC", "setting": "[1]; K. pneumoniae ATCC 13883 sensitive, value in parentheses, MHB, 24 h 37°C, OD620, >90% inhibition", "value": "≥ 12,5 µM"},
      {"measurement": "concentration at which antibacterial activity was exhibited (dose-response profile)", "setting": "[1]; K. pneumoniae sensitive strain, Figure 3", "value": "≤ 27 μg/mL and ≤ 12,5 μM"},
      {"measurement": "MIC", "setting": "[2]; ATCC 700603, 24 h", "value": 12.5, "unit": "µM"},
      {"measurement": "MIC", "setting": "[2]; K. pneumoniae ATCC 700603 resistant, MHB, 24 h 37°C, OD620, >90% inhibition, average of four independent experiments in duplicate", "value": 27, "unit": "µg/mL"},
      {"measurement": "MIC", "setting": "[2]; K. pneumoniae ATCC 700603 resistant, MHB, 24 h 37°C, OD620, >90% inhibition, average of four independent experiments in duplicate, listed as dimeric", "value": "≥ 27", "unit": "µg/mL"},
      {"measurement": "MIC", "setting": "[2]; K. pneumoniae ATCC 700603 resistant, value in parentheses, MHB, 24 h 37°C, OD620, >90% inhibition", "value": "≥ 12,5 µM"},
      {"measurement": "concentration at which antibacterial activity was exhibited (dose-response profile)", "setting": "[2]; K. pneumoniae resistant strain, Figure 3", "value": "≤ 27 μg/mL and ≤ 12,5 μM"},
      {"measurement": "MIC", "setting": "[3]; ATCC 25923, 24 h", "value": 6.25, "unit": "µM"},
      {"measurement": "MIC", "setting": "[3]; S. aureus ATCC 25923 sensitive, MHB, 24 h 37°C, OD620, lowest concentration inhibiting growth >90%, average of four independent experiments in duplicate", "value": 14, "unit": "µg/mL"},
      {"measurement": "MIC", "setting": "[3]; S. aureus ATCC 25923 sensitive, MHB, 24 h 37°C, OD620, lowest concentration inhibiting growth >90%, average of four independent experiments in duplicate, listed as dimeric", "value": "≥ 14", "unit": "µg/mL"},
      {"measurement": "MIC", "setting": "[3]; S. aureus ATCC 25923 sensitive, value in parentheses, MHB, 24 h 37°C, OD620, >90% inhibition, average of four independent experiments in duplicate", "value": "≥ 6.25", "unit": "µM"},
      {"measurement": "concentration at which antibacterial activity was displayed (dose-response profile)", "setting": "[3]; S. aureus sensitive strain, Figure 2", "value": "≥ 14 μg/mL and ≥ 6.25 μM"},
      {"measurement": "MIC", "setting": "[4]; ATCC 33591, 24 h", "value": 25, "unit": "µM"},
      {"measurement": "MIC", "setting": "[4]; S. aureus ATCC 33591 resistant, MHB, 24 h 37°C, OD620, >90% inhibition, average of four independent experiments in duplicate", "value": 55, "unit": "µg/mL"},
      {"measurement": "MIC", "setting": "[4]; S. aureus ATCC 33591 resistant, MHB, 24 h 37°C, OD620, >90% inhibition, average of four independent experiments in duplicate, listed as dimeric", "value": "≥ 55", "unit": "µg/mL"},
      {"measurement": "MIC", "setting": "[4]; S. aureus ATCC 33591 resistant, value in parentheses, MHB, 24 h 37°C, OD620, >90% inhibition", "value": "≥ 25", "unit": "µM"},
      {"measurement": "MBC", "setting": "[5]; ATCC 13883, 18 h", "value": 25, "unit": "µM"},
      {"measurement": "MBC", "setting": "[5]; K. pneumoniae ATCC 13883 sensitive, MHA, 18 h 37°C, 99.9% reduction", "value": 55, "unit": "µg/mL"},
      {"measurement": "MBC as a function of the MBC of the tetrameric peptide", "setting": "[5]; K. pneumoniae sensitive strain, from concentrations in μg/mL", "value": 0.5, "unit": "x MBC"},
      {"measurement": "MBC", "setting": "[6]; ATCC 700603, 18 h", "value": 100, "unit": "µM"},
      {"measurement": "MBC", "setting": "[6]; K. pneumoniae ATCC 700603 resistant, MHA, 18 h 37°C, 99.9% reduction", "value": 220, "unit": "µg/mL"},
      {"measurement": "MBC as a function of the MBC of the tetrameric peptide", "setting": "[6]; K. pneumoniae resistant strain, from concentrations in μg/mL", "value": 1.9, "unit": "x MBC"},
      {"measurement": "MBC", "setting": "[7]; ATCC 25923, 18 h", "value": 50, "unit": "µM"},
      {"measurement": "MBC", "setting": "[7]; S. aureus ATCC 25923 sensitive, MHA, 18 h 37°C, 99.9% reduction, average of four independent experiments", "value": 110, "unit": "µg/mL"},
      {"measurement": "MBC", "setting": "[7]; S. aureus ATCC 25923 sensitive, MHA, 18 h 37°C, 99.9% reduction, average of four independent experiments, listed as dimeric", "value": "≥ 110", "unit": "µg/mL"},
      {"measurement": "MBC", "setting": "[7]; S. aureus ATCC 25923 sensitive, value in parentheses, MHA, 18 h 37°C, 99.9% reduction", "value": "≥ 50", "unit": "µM"},
      {"measurement": "MBC as a function of the MBC of the tetrameric peptide", "setting": "[7]; S. aureus sensitive strain, from concentrations in μg/mL", "value": 1.9, "unit": "x MBC"},
      {"measurement": "MBC", "setting": "[8]; ATCC 33591, 18 h", "value": 50, "unit": "µM"},
      {"measurement": "MBC", "setting": "[8]; S. aureus ATCC 33591 resistant, MHA, 18 h 37°C, 99.9% reduction", "value": 110, "unit": "µg/mL"},
      {"measurement": "MBC", "setting": "[8]; S. aureus ATCC 33591 resistant, MHA, 18 h 37°C, 99.9% reduction, listed as dimeric", "value": "≥ 110", "unit": "µg/mL"},
      {"measurement": "MBC", "setting": "[8]; S. aureus ATCC 33591 resistant, value in parentheses, MHA, 18 h 37°C, 99.9% reduction", "value": "≥ 50", "unit": "µM"},
      {"measurement": "MBC as a function of the MBC of the tetrameric peptide", "setting": "[8]; S. aureus resistant strain, from concentrations in μg/mL", "value": 1.9, "unit": "x MBC"},
      {"measurement": "haemolysis activity over the concentrations tested", "setting": "human erythrocytes", "value": "< 5", "unit": "%"}
    ]}
  ]
}
